Results as given in patent EP3095872A1, “A METHOD OF PRODUCING ALPHA AMINO ACIDS” (Evonik Degussa GmbH, priority 2015, dated 2016).
Like-named read-outs stand apart in the source and are kept apart here. Marks after values point to notes of the source that are not given here.

Tests used:
Format in all cases: biochemical
HICDH-proteins = assay: spectrophotometric monitoring (340 nm) and GC-FID of HICDH oxidation and reduction
P450Cla [1] = assay: alpha-hydroxylation of selected fatty acids, catalytic and kinetic characterization of P450Cla; conditions: for Product: 10 mM fatty acid, 0.5 µM P450Cla (C10), 1 µM (C8, C6), Tris-HCl pH 7.5, RT, triplicate; for specific activity U mg^-1: P450Cla 48 kDa, values only relevant at initial rate; for Coupling*: mol product per mol H2O2
Procedure: Hydroxylation of selected fatty acids was carried out using a fresh preparation of purified P450Cla. P450Cla was characterised for key catalytic parameters specific activities were determined for three selected substrates as shown in Table 1. Table 1: Catalytic and kinetic characterization of P450Cla for conversion of 10 mM of selected fatty acids. All reactions were performed in triplicate.
Conditions: 0.5 µM P450Cla used in reactions with C10; 1 µM P450Cla used in reactions with C8 and C6; All reactions were performed in Tris-HCl (pH 7.5, 0.1 M) at RT and 170 rpm shaking in closed glass vials; *molProduct^-1 molH2O2^-1; ^§molecular weight of P450Cla is 48 kDa, values only relevant at initial rate.

P450Cla [2] = assay: preparative scale conversion of decanoic acid with P450Cla; conditions: 20 mM decanoic acid; 4 µM P450Cla; 32 mM H2O2 in total; 24 h
Procedure: Synthesis of 2-hydroxydecanoic acid was done in 10 ml Tris-HCl (pH 7.5; 0.1 M) employing 4µM P450Cla, 20 mM decanoic acid (38.8 mg of the sodium salt) and 2.5 % EtOH (RT, 170 rpm shaking). Hydrogen peroxide (1.6 mM) was added every 30 min (20 times; in total 32 mM) to the reaction mixture. After 24 h reaction time, 1 ml 5 N HCl was added to stop the reaction. Product extraction was repeated five times using 5 ml EtOAc prior to purification by silica chromatography column using EtOAc/petroleum ether/acetic acid as mobile phase (80:20:1.2). Fractions containing the desired product were combined and concentrated by evaporation under reduced pressure. With the present set up, 16 mg of 2-hydroxydecanoic acid (46 % isolated yield, TTNP450 ∼ 3040) was isolated which was confirmed by GC-MS, 1 H- and 13C-NMR (Figure 1).

P450Cla+CamAB = assay: conversion of fatty acid substrate with P450Cla+CamAB, oxidant O2 + NADPH; conditions: 10 mM substrate, % of the product area of the reaction with H2O2 and 10 mM 1d
Procedure: (§1) P450BSß was expressed and purified as described in Matsunaga et al. 2001. P450Cla was ordered as synthetic gene and cloned into the pET28a expression vector. Efficient expression of P450Cla was obtained by applying the expression protocol (TBmedia, 20 h, 30 °C) as described in Nazor et al. (2008) under heading 'shake flask expression of P450 BM3'. Purification was performed according to the published protocol (Girhard M., et al, 2007) with minor alterations as (unreported) precipitation of P450Cla during dialysis occured. The dialysis buffer was supplemented with 300 mM NaCl to prevent precipitation of P450Cla. Next, hydroxylation of fatty acid substrates 1a-d (scheme 2) was performed employing purified P450Cla and P450BSß. The oxidant source was varied in case of P450Cla while only H2O2 was used with P450BSß. Table 2: Conversion of fatty acid substrates 1a-d with P450Cla and CYPBSß
(§2) All reactions were performed in closed glass vials for 24 h reaction time at RT with 170 rpm shaking. The reactions were quenched by addition of 100 µl 5 N HCl. Extractions were performed with 500 µl EtOAc containing 0.1 % 1-decanol as internal standard. After drying over Na2SO4, derivatization of acids to corresponding methyl esters was realized by mixing 150 µl of organic phase with 90µl of MeOH prior to supplementation of 20 µl of TMSCHN2 for esterification. Samples were analyzed by GC-FID and GC-MS. […]

P450Cla [3] = assay: conversion of fatty acid substrate with P450Cla, oxidant O2 + NADPH; conditions: 10 mM substrate, without CamAB
Procedure: as §1, §2

P450Cla [4] = assay: conversion of fatty acid substrates 1a-d with P450Cla, oxidant H2O2; conditions: 3 µM P450Cla, 24 h, RT, values marked a based on substrate depletion
Procedure: P450Cla was ordered as synthetic gene and cloned into the pET28a expression vector. […] The dialysis buffer was supplemented with 300 mM NaCl to prevent precipitation of P450Cla. Next, hydroxylation of fatty acid substrates 1a-d (scheme 2) was performed employing purified P450Cla and P450BSß. The oxidant source was varied in case of P450Cla while only H2O2 was used with P450BSß.
Reaction conditions for P450Cla: 3µM P450Cla; Tris-HCl (pH 7.5; 0.1 M); 2.5 to 5 % EtOH (cosolvent for the substrate).
All reactions were performed in closed glass vials for 24 h reaction time at RT with 170 rpm shaking. The reactions were quenched by addition of 100 µl 5 N HCl. Extractions were performed with 500 µl EtOAc containing 0.1 % 1-decanol as internal standard. After drying over Na2SO4, derivatization of acids to corresponding methyl esters was realized by mixing 150 µl of organic phase with 90µl of MeOH prior to supplementation of 20 µl of TMSCHN2 for esterification. Samples were analyzed by GC-FID and GC-MS. Commercial standards of 2-hydroxycaproic acid (2a), 2-hydroxyoctanoic acid (2b) and 2-oxooctanoic acid (4b) were used as references. Calibration curves were obtained from standards 1a-d and 2a-b prepared identically to the reaction mixtures (5 concentration points from 10 µM to 1 mM).

## CCCCCCC(=O)C(=O)O [Substrate 4b, 2-oxooctanoic acid]
HICDH-proteins
  Reduction to 2-hydroxy octanoic acid 2b (GC-FID): confirmed

## CCCCCCCCCC(=O)O [Substrate C10, decanoic acid]
P450Cla [1]
  Selectivity [% α-OH]: > 90%
  specific activity: ≥ 1 U mg^-1
P450Cla [1]; 5 min, H2O2 0.8 mM
  Product: 0.67 ± 0.04 mM
  Selectivity [% α-OH]: >95%
  TON: 266 min⁻¹
  TTN: 1330
  specific activity U mg^-1: 5.5 U mg^-1
  Coupling*: 83%
P450Cla [1]; 15 min, H2O2 0.8 mM
  Product: 0.6 ± 0.02 mM
  Selectivity [% α-OH]: >95%
  TON: 80 min⁻¹
  TTN: 1207
  specific activity U mg^-1: 1.7 U mg^-1
  Coupling*: 75%
P450Cla [1]; 30 min, H2O2 1.6 mM
  Product: 1.2 ± 0.06 mM
  Selectivity [% α-OH]: >95%
  TON: 80 min⁻¹
  TTN: 2406
  specific activity U mg^-1: 1.7 U mg^-1
  Coupling*: 75%
P450Cla [2]
  TTNP450: ~3040

## CCCCCCCCCCCC(=O)O [Substrate 1d, dodecanoic acid]
P450Cla+CamAB
  Conversion: 5^b %
P450Cla [3]
  Conversion: 0%
P450Cla [4]; 5 mM substrate, H2O2 9.6 mM total
  Conversion: >99^a %
P450Cla [4]; 10 mM substrate, H2O2 19.2 mM total
  Conversion: >99^a %
